Laboratory results from patent US8921307B2, “Synthetic linear apelin mimetics for the treatment of heart failure” (priority 2012, dated 2014).
Where a SMILES comes first, the peptide text is derived from it. [ ]: non-standard residue; d: D form. Cha = N[C@@H](CC1CCCCC1)C(=O)O; pGlu = O=C1CC[C@@H](C(=O)O)N1; dNle = CCCC[C@@H](N)C(=O)O; dNva = CCC[C@@H](N)C(=O)O; Aib = CC(C)(N)C(=O)O

How the values were obtained:
[1] = Surrogate Activity-Based Plasma Stability Assay; assay type: in vitro ADME; conditions: rat
Method: Stability half-life was then calculated by the formula, t½=0.693÷k Surrogate Activity-Based Plasma Stability Assay: […]
2) Calculate slope of value above and […]

[2] = Plasma Stability Assay (LC-MS); assay type: in vitro ADME; conditions: male, Sprague-Dawley, rat
Method: Plasma Stability Assay: Materials: Working solution: 1 mg/mL test article is prepared in Milli-Q water Extraction solution: Methanol:Acetonitrile:Water (1:1:1) with 0.1% Formic Acid and 400 ng/mL Glyburide. Plasma: Male Sprague-Dawley rat plasma (with sodium heparin), purchased from Bioreclamation LLC (Liverpool, N.Y.). Test article was prepared in one of the following biological matrices: heparinized rat plasma, heparinized rat whole blood or lung homogenate. […] Lung homogenate samples were prepared by diluting lung homogenate to 1 mg/ml protein concentration with phosphate buffered saline (PBS), followed by addition of 5 uL Working solution to 995 uL diluted lung homogenate. The samples were incubated at 37° C. with gentle shaking (65˜75 rpm) in a water bath incubator. […] Afterwards, a pipetting device (Tecan Temo) was used to tranfer the supernatants to another plate and add 50 uL of water to all samples. The plate was vortexed prior to LC-MS analysis. LC-MS Analysis of stability samples HPLC: Agilent 1290 HPLC with autosampler Column: MAC-MOD ACE C18, 3 μm, 30 mm×2.1 mm i.d. Mobile phase A: 0.1% Formic acid in acetonitrile Mobile phase B: 0.1% Formic acid in water Gradient Program: [table]

hAPJ = target: T1, hAPJ (Homo sapiens, UniProt P35414); test: hAPJ Calcium Flux Assay; assay type: cell-based; conditions: Chem-5 APJ stable cells, FLIPR calcium flux stimulation; read-out: hAPJ Ca^2+ Flux EC50
T1 sequence (P35414 1-380): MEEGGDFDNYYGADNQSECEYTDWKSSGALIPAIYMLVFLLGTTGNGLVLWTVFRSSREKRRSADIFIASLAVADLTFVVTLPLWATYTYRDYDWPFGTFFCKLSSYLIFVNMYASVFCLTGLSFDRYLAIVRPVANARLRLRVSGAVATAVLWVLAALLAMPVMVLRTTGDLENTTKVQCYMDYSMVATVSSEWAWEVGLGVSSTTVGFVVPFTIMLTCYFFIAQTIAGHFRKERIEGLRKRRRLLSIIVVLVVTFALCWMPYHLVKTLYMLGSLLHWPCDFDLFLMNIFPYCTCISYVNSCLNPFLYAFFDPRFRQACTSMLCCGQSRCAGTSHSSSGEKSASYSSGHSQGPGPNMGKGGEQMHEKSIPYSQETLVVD
Summary of the method: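 Chem-5 cells stably expressing APJ, loaded 1 h with Calcium 4 dye plus 2.5 mM probenecid at 37 °C. Peptides added at final […] in HBSS/HEPES/0.1% BSA, in triplicate.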

[3] = Surrogate Activity based Plasma stability t½
[4] = Surrogate activity-based Plasma stability t½

SMILES | half-life [1, 3] | half-life [1, 4] | half-life at 5000 ng/mL [2] | EC50 (hAPJ)
CCCC[C@@H](NC(=O)[C@@H]1CCCN1C(=O)CNC(=O)[C@H](CCCCN)NC(=O)C(C)(C)NC(=O)[C@H](CO)NC(=O)[C@@H](CC(C)C)NC(=O)[C@H](CCCNC(=N)N)NC(=O)[C@@H]1CCCN1C(=O)[C@H](CCCNC(=N)N)NC(=O)[C@@H]1CCC(=O)N1)C(=O)N[C@H](C)C(=O)N[C@H](Cc1ccccc1)C(=O)O [Example 4, pE-R-P-R-(D-Leu)-S-Aib-K-G-P-nle-a-f-OH] ([pGlu]RPR[dL]S[Aib]KGP[dNle][dA][dF]-OH) | 12.2 h | 12.2 h | 6.9 h | 5 nM
CCCC[C@@H](NC(=O)[C@@H]1CCCN1C(=O)CNC(=O)[C@H](CCCCN)NC(=O)[C@H](Cc1c[nH]cn1)NC(=O)[C@@H](C)NC(=O)[C@H](CC(C)C)NC(=O)[C@H](CCCNC(=N)N)NC(=O)[C@@H]1CCCN1C(=O)[C@H](CCCNC(=N)N)NC(=O)[C@@H]1CCC(=O)N1)C(=O)N[C@H](CC(C)C)C(=O)N[C@H](Cc1ccccc1)C(=O)O [Example 14, pE-R-P-R-L-a-H-K-G-P-nle-(D-Leu)-f-OH] ([pGlu]RPRL[dA]HKGP[dNle][dL][dF]-OH) | 3.08 h | 3.08 h | 6.75 h | 3.2 nM
CCCC[C@@H](NC(=O)[C@@H]1CCCN1C(=O)CNC(=O)[C@H](CCCCN)NC(=O)[C@@H](Cc1c[nH]cn1)NC(=O)[C@@H](C)NC(=O)[C@H](CC(C)C)NC(=O)[C@H](CCCNC(=N)N)NC(=O)[C@@H]1CCCN1C(=O)[C@H](CCCNC(=N)N)NC(=O)[C@@H]1CCC(=O)N1)C(=O)N[C@H](C)C(=O)N[C@H](Cc1ccccc1)C(=O)O [Example 16, pE-R-P-R-L-a-h-K-G-P-nle-a-f-OH] | 6.82 h | 6.82 h | 7.47 h | 8.8 nM
CCCC[C@@H](NC(=O)[C@@H]1CCCN1C(=O)CNC(=O)[C@H](CCCCN)NC(=O)[C@H](Cc1ccccc1)NC(=O)[C@@H](C)NC(=O)[C@H](CC(C)C)NC(=O)[C@H](CCCNC(=N)N)NC(=O)[C@@H]1CCCN1C(=O)[C@H](CCCNC(=N)N)NC(=O)[C@@H]1CCC(=O)N1)C(=O)N[C@H](C)C(=O)N[C@H](Cc1ccccc1)C(=O)O [Example 17, pE-R-P-R-L-a-F-K-G-P-nle-a-f-OH] ([pGlu]RPRL[dA]FKGP[dNle][dA][dF]-OH) | > 16.7 h | > 16.7 h | 6.08 h | 3.1 nM
CCCC[C@@H](NC(=O)[C@@H]1CCCN1C(=O)CNC(=O)[C@H](CCCCN)NC(=O)[C@H](Cc1c[nH]cn1)NC(=O)[C@@H](C)NC(=O)[C@H](CC(C)C)NC(=O)[C@H](CCCNC(=N)N)NC(=O)[C@@H]1CCCN1C(=O)[C@H](CCCNC(=N)N)NC(=O)[C@@H]1CCC(=O)N1)C(=O)N[C@H](C)C(=O)N[C@H](Cc1ccccc1)C(=O)O [Example 29, pE-R-P-R-L-a-H-K-G-P-nle-a-f-OH] | 9.42 h | 9.42 h | 2.6 h | 
CCCC[C@H](NC(=O)[C@@H]1CCCN1C(=O)CNC(=O)[C@H](CCCCN)NC(=O)[C@H](Cc1c[nH]cn1)NC(=O)[C@@H](C)NC(=O)[C@H](CC(C)C)NC(=O)[C@H](CCCNC(=N)N)NC(=O)[C@@H]1CCCN1C(=O)[C@H](CCCNC(=N)N)NC(=O)[C@@H]1CCC(=O)N1)C(=O)N[C@H](C)C(=O)N[C@H](Cc1ccccc1)C(=O)O [Example 30, pE-R-P-R-L-a-H-K-G-P-Nle-a-f-OH] | 2.13 h | 2.14 h | 2.02 h | 2.4 nM
CCCC[C@@H](NC(=O)[C@@H]1CCCN1C(=O)CNC(=O)[C@H](CCCCN)NC(=O)[C@@H](Cc1c[nH]cn1)NC(=O)[C@H](C)NC(=O)[C@H](CC(C)C)NC(=O)[C@H](CCCNC(=N)N)NC(=O)[C@@H]1CCCN1C(=O)[C@H](CCCNC(=N)N)NC(=O)[C@@H]1CCC(=O)N1)C(=O)N[C@H](C)C(=O)N[C@H](Cc1ccccc1)C(=O)O [Example 58, pE-R-P-R-L-A-h-K-G-P-nle-a-f-OH] |  | 3.8 h |  | 55.1 nM
CCCC[C@@H](NC(=O)[C@@H]1CCCN1C(=O)CNC(=O)[C@H](CCC(N)=O)NC(=O)[C@H](Cc1c[nH]cn1)NC(=O)[C@@H](C)NC(=O)[C@H](CC(C)C)NC(=O)[C@H](CCCNC(=N)N)NC(=O)[C@@H]1CCCN1C(=O)[C@H](CCCNC(=N)N)NC(=O)[C@@H]1CCC(=O)N1)C(=O)N[C@H](C)C(=O)N[C@H](Cc1ccccc1)C(=O)O [Example 59, pE-R-P-R-L-a-H-Q-G-P-nle-a-f-OH] ([pGlu]RPRL[dA]HQGP[dNle][dA][dF]-OH) |  | 14.2 h |  | 7.4 nM
CCCC[C@@H](NC(=O)[C@@H]1CCCN1C(=O)CNC(=O)[C@H](CCC(=O)O)NC(=O)[C@H](Cc1c[nH]cn1)NC(=O)[C@@H](C)NC(=O)[C@H](CC(C)C)NC(=O)[C@H](CCCNC(=N)N)NC(=O)[C@@H]1CCCN1C(=O)[C@H](CCCNC(=N)N)NC(=O)[C@@H]1CCC(=O)N1)C(=O)N[C@H](C)C(=O)N[C@H](Cc1ccccc1)C(=O)O [Example 60, pE-R-P-R-L-a-H-E-G-P-nle-a-f-OH] ([pGlu]RPRL[dA]HEGP[dNle][dA][dF]-OH) |  | > 16.7 h |  | 200 nM
CCCC[C@@H](NC(=O)[C@@H]1CCCN1C(=O)CNC(=O)[C@H](CCCCN)NC(=O)[C@H](Cc1c[nH]cn1)NC(=O)[C@H](NC(=O)[C@H](CC(C)C)NC(=O)[C@H](CCCNC(=N)N)NC(=O)[C@@H]1CCCN1C(=O)[C@H](CCCNC(=N)N)NC(=O)[C@@H]1CCC(=O)N1)C(C)C)C(=O)N[C@H](C)C(=O)N[C@H](Cc1ccccc1)C(=O)O [Example 61, pE-R-P-R-L-v-H-K-G-P-nle-a-f-OH] ([pGlu]RPRL[dV]HKGP[dNle][dA][dF]-OH) |  | > 16.7 h |  | 7.9 nM
CCCC[C@@H](NC(=O)[C@@H]1CCCN1C(=O)[C@H](CC(=O)O)NC(=O)[C@H](CCCCN)NC(=O)[C@H](Cc1c[nH]cn1)NC(=O)[C@@H](C)NC(=O)[C@H](CC(C)C)NC(=O)[C@H](CCCNC(=N)N)NC(=O)[C@@H]1CCCN1C(=O)[C@H](CCCNC(=N)N)NC(=O)[C@@H]1CCC(=O)N1)C(=O)N[C@H](C)C(=O)N[C@H](Cc1ccccc1)C(=O)O [Example 62, pE-R-P-R-L-a-H-K-D-P-nle-a-f-OH] ([pGlu]RPRL[dA]HKDP[dNle][dA][dF]-OH) |  | 7.9 h |  | 95.9 nM
CCCC[C@@H](NC(=O)[C@@H]1CCCN1C(=O)CNC(=O)[C@H](CCCCN)NC(=O)[C@H](Cc1c[nH]cn1)NC(=O)[C@@H](CCC)NC(=O)[C@H](CC1CCCCC1)NC(=O)[C@H](CCCNC(=N)N)NC(=O)[C@@H]1CCCN1C(=O)[C@H](CCCNC(=N)N)NC(=O)[C@@H]1CCC(=O)N1)C(=O)N[C@H](C)C(=O)N[C@H](Cc1ccccc1)C(=O)O [Example 63, pE-R-P-R-Cha-nva-H-K-G-P-nle-a-f-OH] ([pGlu]RPR[Cha][dNva]HKGP[dNle][dA][dF]-OH) |  | 3.75 h |  | 9.4 nM
